Data published in patent US20250026769A1, “PAPD5 INHIBITORS AND METHODS OF USE THEREOF” (The Children's Medical Center Corporation, priority 2021, published 2025).

Biological target: T1, rPAPD5 (Homo sapiens, UniProt Q8NDF8)
T1 construct: made in house
Test: differential scanning fluorimetry (DSF) binding and stabilization of rPAPD5
Details: shift vs DMSO control; for ΔTm at 100 µM: 100 μM test compound, read-out: ΔTm at 100 μM
Procedure: Binding and stabilization of rPAPD5 by test compounds was determined using differential scanning fluorimetry (DSF). DSF assays were performed to determine protein melting temperature using an indicator dye SYPRO orange (Thermo Fisher Scientific, S6651) diluted 1:5000 in […] of buffer containing […], […] (Jena Biosciences), 25 mM Tris-HCl, 5 mM MgCl2, 50 mM KCl. […] DMSO was used as a negative control. Each curve was an average of three measurements and Thermal Shift software (Thermo Fisher Scientific, 4466038) was used for analysis. […] The change in melting temperature (ΔTm) is in reference to the DMSO control. Referring to Table 2, “+” refers to ΔTm values below 1° C., “++” refers to ΔTm values from 1 to 5° C., and “+++” refers to ΔTm values above 5° C.

T1 sequence (Q8NDF8 68-698 isoform Q8NDF8-5 limits assumed): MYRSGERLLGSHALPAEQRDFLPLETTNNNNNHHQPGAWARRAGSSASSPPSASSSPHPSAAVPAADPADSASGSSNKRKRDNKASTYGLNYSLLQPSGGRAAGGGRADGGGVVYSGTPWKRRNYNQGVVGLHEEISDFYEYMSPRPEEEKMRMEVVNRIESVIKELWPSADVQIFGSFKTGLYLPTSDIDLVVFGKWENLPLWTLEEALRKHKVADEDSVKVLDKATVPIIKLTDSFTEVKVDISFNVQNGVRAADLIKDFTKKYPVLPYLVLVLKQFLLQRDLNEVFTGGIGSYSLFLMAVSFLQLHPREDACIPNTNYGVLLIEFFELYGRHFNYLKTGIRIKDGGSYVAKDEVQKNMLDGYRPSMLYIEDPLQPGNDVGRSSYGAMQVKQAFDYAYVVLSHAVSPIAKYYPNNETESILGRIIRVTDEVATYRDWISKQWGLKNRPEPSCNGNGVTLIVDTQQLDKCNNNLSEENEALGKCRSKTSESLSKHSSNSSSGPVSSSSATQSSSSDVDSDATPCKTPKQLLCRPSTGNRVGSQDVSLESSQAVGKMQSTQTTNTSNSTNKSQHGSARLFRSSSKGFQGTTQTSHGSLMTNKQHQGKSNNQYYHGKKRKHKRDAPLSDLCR

| ΔTm at 100 µM [°C] | ΔTm at 10 µM (10 μM test compound, read-out: ΔTm (Table 2, starred: the compound was tested at 10 μM)) [°C] | SMILES |
| --- | --- | --- |
| 1 to 5 |  | O=C(O)c1c(Nc2c(S(=O)(=O)N3CCOCC3)cnc3ccc(Cl)cc23)cccc1N1CCC1 [Compound 87A-Cl] |
| 1 to 5 |  | O=C(O)c1c(Nc2c(S(=O)(=O)N3CCOCC3)cnc3ccc(Cl)cc23)cccc1-c1ccn[nH]1 [Compound 91A-Cl] |
|  | > 5 | O=C(O)c1ccccc1Nc1c(S(=O)(=O)N2CCN(C(=O)OCc3ccccc3)CC2)cnc2ccc(Cl)cc12 [Compound 123A-CBZ] |
| > 5 |  | O=C(O)c1ccccc1Nc1c(S(=O)(=O)N2CCNCC2)cnc2ccc(Cl)cc12 [Compound 123A] |
| 1 to 5 |  | COC(=O)c1ccccc1Nc1c(S(=O)(=O)N2CCOCC2)cnc2ccc(Cl)cc12 [Compound 124A] |
| 1 to 5 |  | O=C(O)c1c(F)cccc1Nc1c(S(=O)(=O)N2CCOCC2)cnc2ccc(Cl)cc12 [Compound 125A] |
| > 5 |  | O=C(O)c1c(Nc2c(S(=O)(=O)N3CCOCC3)cnc3ccc(Cl)cc23)cccc1C(O)(O)C(F)(F)F [Compound 127A-1] |
| < 1 |  | O=C(O)c1c(Br)cccc1Nc1c(S(=O)(=O)N2CCOCC2)cnc2ccc(Cl)cc12 [Compound 128A-BR] |
| > 5 |  | O=C(O)c1ccccc1Nc1c(S(=O)(=O)N2CCOCC2)cnc2ccc(OC(F)(F)F)cc12 [Compound 131A] |
| > 5 |  | O=C(O)c1ccccc1Nc1c(S(=O)(=O)N2CCC(F)(F)CC2)cnc2ccc(OC(F)(F)F)cc12 [Compound 132A] |
| > 5 |  | O=C(O)c1c(O)cccc1Nc1c(S(=O)(=O)N2CCC(F)(F)CC2)cnc2ccc(OC(F)(F)F)cc12 [Compound 133A] |
| > 5 |  | O=C(O)c1ccccc1Nc1c(-c2cnco2)cnc2ccc(Cl)cc12 [Compound 134A] |
| > 5 |  | O=C(O)c1ccccc1Nc1c(S(=O)(=O)N2CC(CO)(CCl)C2)cnc2ccc(Cl)cc12 [Compound 135A-BP] |
| > 5 |  | O=C(O)c1ccccc1Nc1c(S(=O)(=O)N2CC3(COC3)C2)cnc2ccc(Cl)cc12 [Compound 135A] |
| 1 to 5 |  | Cc1ccc(-c2ccc3ncc(S(=O)(=O)N4CCOCC4)c(Nc4ccccc4C(=O)O)c3c2)s1 [Compound 136A] |
| 1 to 5 |  | O=C(O)c1ccccc1Nc1c(S(=O)(=O)N2CCOCC2)cnc2ccc(-c3cc[nH]n3)cc12 [Compound 137A] |
| > 5 |  | CC(=O)c1ccc(-c2ccc3ncc(S(=O)(=O)N4CCOCC4)c(Nc4ccccc4C(=O)O)c3c2)s1 [Compound 138A] |
| 1 to 5 |  | N#Cc1csc(-c2ccc3ncc(S(=O)(=O)N4CCOCC4)c(Nc4ccccc4C(=O)O)c3c2)c1 [Compound 139A] |
| 1 to 5 |  | O=C(O)c1ccccc1Nc1c(S(=O)(=O)N2CCOCC2)cnc2ccc(-c3sccc3Cl)cc12 [Compound 140A] |
| < 1 |  | CC(C)n1nc(C(F)(F)F)cc1-c1ccc2ncc(S(=O)(=O)N3CCOCC3)c(Nc3ccccc3C(=O)O)c2c1 [Compound 141A] |
| 1 to 5 |  | CN(C)c1ncc(-c2ccc3ncc(S(=O)(=O)N4CCOCC4)c(Nc4ccccc4C(=O)O)c3c2)cn1 [Compound 142A] |
| 1 to 5 |  | N=c1cc(C(F)(F)F)c(-c2ccc3ncc(S(=O)(=O)N4CCOCC4)c(Nc4ccccc4C(=O)O)c3c2)c[nH]1 [Compound 143A] |
| > 5 |  | O=C(O)c1ccccc1Nc1c(S(=O)(=O)N2CCOCC2)cnc2ccc(-c3cn(S(=O)(=O)c4ccccc4)c4ncccc34)cc12 [Compound 144A] |
| > 5 |  | COCCn1cc(-c2ccc3ncc(S(=O)(=O)N4CCOCC4)c(Nc4ccccc4C(=O)O)c3c2)cn1 [Compound 145A] |
| < 0 |  | O=C(O)c1ccccc1Nc1c(S(=O)(=O)N2CCOCC2)cnc2ccc(-c3cc4cc(Cl)ccc4s3)cc12 [Compound 146A-C1] |
| > 5 |  | O=C(O)c1ccccc1Nc1c(S(=O)(=O)N2CCOCC2)cnc2ccc(-c3c[nH]c4ncc(C(F)(F)F)cc34)cc12 [Compound 147A] |
| 1 to 5 |  | O=C(O)c1ccccc1Nc1c(S(=O)(=O)N2CCOCC2)cnc2ccc(-c3cnn(C4CCOC4)c3)cc12 (stereo not drawn) [Compound 148A-R] |
